The record followed here is patent publication US9624195B2, “Isoquinoline compounds” (Gilead Sciences, Inc., priority 2014, dated 2017).

Where two headings read alike, the source gives them in different places.

One may read the EC50 as the concentration that produces a half-maximal response.

What all share (format): cell-based
Series [1] relates to HIV-1 reverse transcriptase mutant K103N. The series can be described thus: High throughput cytopathic effect assay in MT-4 cells, HIV-1 RT mutant K103N. To be noted: for EC50: Human immunodeficiency virus 1, MT4, read-out: MT4 EC50 (nM) against K103N; for FC against mutant K103N: fold change of EC50, K103N versus w.t. assay 2. An excerpt:
(§1) Compounds were screened in a miniaturized, high throughput cytopathic effect assay for activity against HIV-1 HBX2 (wild type) and HIV-1 reverse transcriptase mutants K103N and Y181C. In Tables 1 and 2 below, “w.t.” refers to results of the tested compounds run with the wildtype 1 and “w.t. assay 2” refers results of the tested compounds run with the wildtype on the same day as the testing of the compounds with the mutants. Thus, “w.t. assay 2” was run under the same conditions as the testing of the compounds with the mutants and provides a direct comparison with the results from the testing with the mutants.
(§2) Ten-point serial dilutions of compounds with half-log step size were generated in DMSO. AZT (5 μM) was used as the positive control and DMSO as the negative control. The Echo acoustic dispenser was used to deliver 200 nL of serially diluted compound into sterile 384 well tissue culture assay plates. Two million MT-4 cells were incubated with each of the 3 viruses at MOI of 0.0005 in separate 1 mL infection tubes for 1 hour at 37° C. The cells were diluted in cell culture medium (RPMI+10% FBS) to 50,000 cells/mL. The infected cells were added to 384 well assay plates containing serially dilute compounds. Assay plates were incubated for 5 days in a humidified incubator set at 37° C. and 5% CO2. To measure the cytopathic effect of HIV, 40 μL Cell TiterGlo was added to each well and the resulting luminescence signal is read with the Envision plate reader (Perkin Elmer). Data were normalized to positive and negative controls in each plate and expressed as % CPE Protection. EC50 values were defined as the compound concentration that caused a 50% […] in luminescence signal, and were calculated by non-linear regression using Pipeline Pilot software by applying a four parameter fit equation (Accelrys, San Diego, Calif.).
(§3) The high-throughput screening was also run for nevirapine (“NPV”), rilpivirine (“RPV”), and efavirenz (“EFV”). Nevirapine was obtained from Toronto Research Chemicals, Inc. (Toronto, Canada; Catalogue #N391275). Rilpivirine was obtained from Key Organics Ltd. (Camelford, Cornwall, United Kingdom; Catalogue #KE-0036). Efavirenz was obtained from Toronto Research Chemicals, Inc. (Toronto, Canada; Catalogue #E425000). Further details and background can be found in Janssen et al, J. Med. Chem, 2005, 48, 1901-1909; Das et al., Proc. Nat. Acad. Sci., 2008, vol., 105, no. 5, 1466-1471; and Kuroda et al., Nature Chemistry, 2013, DOI: 10.1038/NCHEM.1559.
For orientation: Damage to the host cells serves as the signal in cytopathic effect assays.

The subject of another series is HIV-1 HBX2 (wild type). In words: High throughput cytopathic effect assay in MT-4 cells, HIV-1 wild type.
From the text: as §1, §2, §3

The test system of series [2] is HIV-1 reverse transcriptase mutant Y181C. The series can be described thus: High throughput cytopathic effect assay in MT-4 cells, HIV-1 RT mutant Y181C. To be noted: for EC50: Human immunodeficiency virus 1, MT4, read-out: MT4 EC50 (nM) against Y181C; for FC against mutant Y181C: fold change of EC50, Y181C versus w.t. assay 2.
From the text: as §1, §2, §3

Another series deals with T1, hERG channels (Homo sapiens, UniProt Q12809).
T1 construct: host or cells: CHO cells stably expressing hERG
In words: hERG assay, whole cell recordings in CHO cells stably expressing hERG channels. To be noted: tail current, whole cell patch clamp. How it is done: AVIVA's CHO cell line, which stably expresses hERG channels, was used for the study. Cells were cultured in DMEM/F12 containing 10% FBS, 1% penicillin/streptomycin and 500 μg/ml G418. Before testing, cells were harvested using Accumax (Innovative Cell Technologies).
For electrophysiological recordings, the following solutions were used:
External Solution: 2 mM CaCl2; 2 mM MgCl2; 4 mM KCl; 150 mM NaCl; 10 mM Glucose; 10 mM HEPES; 305-315 mOsm; pH 7.4 (adjusted with 5M NaOH.)
Internal Solution: 140 mM KCl; 10 mM MgCl2; 6 mM EGTA; 5 mM HEPES-Na; 5 mM ATP-Mg; 295-305 mOsm; pH 7.25 (adjusted with 1M KOH).
Whole cell recordings were performed using PX 7000A (Axon Instruments) with AVIVA's SealChip™ technology. Cells were voltage clamped at a holding potential of −80 mV. The hERG current was then activated by a depolarizing step to −50 mV for 300 ms. This first step at −50 mV was used as a baseline for measuring peak amplitude of the tail current. Next, a voltage step to +20 mV was applied for 5 s to activate the channels. Finally, a step back to −50 mV for 5 s removed activation and the deactivating tail current was recorded.
All test articles were prepared from 10 mM DMSO stock solutions. […]
After achieving whole cell configuration, cells were monitored for 90 s to assess stability and then washed with External Solution for 66 s. […]
A general note: The hERG channel carries a current that helps repolarise heart muscle cells.

Setting [3] is: Human immunodeficiency virus 1, MT4, 120 h, MT-4 cells, HIV-1 wild type, 5 days, CPE protection (Cell TiterGlo), read-out: MT4 EC50 (nM) against w.t.
Setting [4] is: Human immunodeficiency virus 1, MT4, read-out: MT4 EC50 (nM) against w.t. assay 2.

T1 sequence (Q12809 whole entry): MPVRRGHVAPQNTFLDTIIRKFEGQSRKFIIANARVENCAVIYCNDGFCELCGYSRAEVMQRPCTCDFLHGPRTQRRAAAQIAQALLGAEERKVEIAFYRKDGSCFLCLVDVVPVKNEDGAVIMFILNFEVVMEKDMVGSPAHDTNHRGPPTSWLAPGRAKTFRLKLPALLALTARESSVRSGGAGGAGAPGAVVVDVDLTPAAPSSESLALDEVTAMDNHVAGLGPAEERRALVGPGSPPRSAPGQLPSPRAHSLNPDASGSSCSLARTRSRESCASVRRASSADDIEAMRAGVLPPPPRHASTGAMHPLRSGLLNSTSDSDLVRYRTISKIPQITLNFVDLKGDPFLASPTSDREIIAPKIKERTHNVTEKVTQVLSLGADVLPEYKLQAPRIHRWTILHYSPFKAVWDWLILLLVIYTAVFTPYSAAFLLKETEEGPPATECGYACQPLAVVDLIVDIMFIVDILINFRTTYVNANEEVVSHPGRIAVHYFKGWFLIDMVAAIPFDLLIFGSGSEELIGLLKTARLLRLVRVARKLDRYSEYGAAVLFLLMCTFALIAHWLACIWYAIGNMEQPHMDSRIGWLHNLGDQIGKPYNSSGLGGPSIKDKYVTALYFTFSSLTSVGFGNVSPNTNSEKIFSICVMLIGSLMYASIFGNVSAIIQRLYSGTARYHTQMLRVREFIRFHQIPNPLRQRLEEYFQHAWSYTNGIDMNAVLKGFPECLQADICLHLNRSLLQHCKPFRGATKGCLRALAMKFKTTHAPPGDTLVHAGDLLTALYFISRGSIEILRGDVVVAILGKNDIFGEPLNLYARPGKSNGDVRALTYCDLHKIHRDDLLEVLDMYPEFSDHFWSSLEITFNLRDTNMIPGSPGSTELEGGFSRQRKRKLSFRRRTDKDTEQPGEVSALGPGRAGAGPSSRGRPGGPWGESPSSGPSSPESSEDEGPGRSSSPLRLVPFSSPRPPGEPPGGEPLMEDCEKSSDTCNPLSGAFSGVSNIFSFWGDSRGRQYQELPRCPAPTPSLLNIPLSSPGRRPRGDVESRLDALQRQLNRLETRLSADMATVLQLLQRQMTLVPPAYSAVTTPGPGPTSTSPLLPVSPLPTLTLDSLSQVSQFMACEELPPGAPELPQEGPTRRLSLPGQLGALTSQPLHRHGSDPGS

Turning to `Cc1cc(/C=C/C#N)cc(C)c1-c1cccc2c(N)nc(Nc3ncc(C#N)cn3)cc12` [Compound 1, (E)-2-((1-Amino-5-(4-(2-cyanovinyl)-2,6-dimethylphenyl)isoquinolin-3-yl)amino)pyrimidine-5-carbonitrile], the EC50 in series [1] was found to be 6.4 nM; in the series on HIV-1 HBX2 (wild type) (setting [3]) it was 6.4 nM; with HIV-1 HBX2 (wild type) (setting [4]), 4.5 nM; in series [2] it was 51.6 nM. In addition, the “FC against mutant K103N” value in series [1] came out at 1.4. Besides, in series [2], the “FC against mutant Y181C” value was determined as 11.5.

Regarding `Cc1cc(/C=C/C#N)cc(C)c1-c1cccc2c(N)nc(Nc3cnc(C#N)cn3)cc12` [Compound 2, (E)-5-((1-Amino-5-(4-(2-cyanovinyl)-2,6-dimethylphenyl)isoquinolin-3-yl)amino)pyrazine-2-carbonitrile], the EC50 in series [1] is 29.7 nM; in the series on HIV-1 HBX2 (wild type) (setting [3]), 14.4 nM; in the series with HIV-1 HBX2 (wild type) (setting [4]), 20.2 nM; in series [2], 109 nM. Further, the “FC against mutant K103N” value in series [1] is 1.5. Moreover, in series [2], the “FC against mutant Y181C” value is 5.4.

As to `Cc1cc(/C=C/C#N)cc(C)c1-c1cccc2c(N)nc(Nc3ccc(C#N)nn3)cc12` [Compound 3, (E)-6-((1-Amino-5-(4-(2-cyanovinyl)-2,6-dimethylphenyl)isoquinolin-3-yl)amino)pyridazine-3-carbonitrile], the EC50 in series [1] worked out at 36.4 nM; with HIV-1 HBX2 (wild type) (setting [3]) it was 17 nM; in the series on HIV-1 HBX2 (wild type) (setting [4]) it was 22.7 nM; in series [2], 174 nM. Besides, the “FC against mutant K103N” value in series [1] was determined as 1.6. Besides, the “FC against mutant Y181C” value in series [2] was determined as 7.7.

In the case of `Cc1cc(/C=C/C#N)cc(C)c1-c1cccc2c(N)nc(Nc3ccc(C#N)cn3)cc12` [Compound 4, (E)-6-((1-Amino-5-(4-(2-cyanovinyl)-2,6-dimethylphenyl)isoquinolin-3-yl)amino)nicotinonitrile], the EC50 in series [1] turned out to be 3.7 nM; in the series on HIV-1 HBX2 (wild type) (setting [3]) it was 2.8 nM; in the series on HIV-1 HBX2 (wild type) (setting [4]), 3.6 nM; in series [2] it was 12 nM. In series [1], the “FC against mutant K103N” value is listed as 1.0. This molecule also displayed a hERG at hERG channels of 3 µM. Besides, the “FC against mutant Y181C” value in series [2] is 3.4.

Take `Cc1cc(/C=C/C#N)cc(C)c1-c1cccc2cnc(Nc3ccc(C#N)cn3)cc12` [Compound 5, (E)-6-((5-(4-(2-Cyanovinyl)-2,6-dimethylphenyl)isoquinolin-3-yl)amino)nicotinonitrile]: the EC50 in series [1] came out at 4.7 nM; in the series on HIV-1 HBX2 (wild type) (setting [3]), 4.2 nM; in the series on HIV-1 HBX2 (wild type) (setting [4]), 4.7 nM; in series [2] it was 12 nM. For the same molecule, the “FC against mutant K103N” value in series [1] amounted to 1.0. Also, the “FC against mutant Y181C” value in series [2] is recorded as 2.5.

Turning to `Cc1cc(/C=C/C#N)cc(C)c1-c1cccc2cnc(Nc3ccc(C#N)cc3)cc12` [Compound 6, (E)-4-((5-(4-(2-Cyanovinyl)-2,6-dimethylphenyl)isoquinolin-3-yl)amino)benzonitrile], the EC50 in the series with HIV-1 HBX2 (wild type) (setting [3]) was 12.9 nM.

As for `O=C1Nc2ccc(Cl)cc2[C@@](C#CC2CC2)(C(F)(F)F)O1` [Efavirenz, efavirenz, reference compound], the EC50 in series [1] came to 46.4 nM; with HIV-1 HBX2 (wild type) (setting [3]) it was 1.3 nM; in the series with HIV-1 HBX2 (wild type) (setting [4]), 1.6 nM; in series [2], 3.8 nM. The “FC against mutant K103N” value in series [1] was 28.9. Further, the “FC against mutant Y181C” value in series [2] was 2.3.

In the case of `Cc1ccnc2c1NC(=O)c1cccnc1N2C1CC1` [Nevirapine, nevirapine, reference compound], in the series on HIV-1 HBX2 (wild type) (setting [3]), the EC50 turned out to be 65 nM.

As to `Cc1cc(/C=C/C#N)cc(C)c1Nc1ccnc(Nc2ccc(C#N)cc2)n1` [Rilpivirine, rilpivirine, reference compound], the EC50 in series [1] amounted to 1.5 nM; in the series on HIV-1 HBX2 (wild type) (setting [3]), 0.9 nM; in the series on HIV-1 HBX2 (wild type) (setting [4]), 1.3 nM; in series [2] it was 3.8 nM. Moreover, the “FC against mutant K103N” value in series [1] is listed as 1.2. The molecule also returned a hERG at hERG channels of 0.5 µM. Also, the “FC against mutant Y181C” value in series [2] is given as 3.1.
